This passage reports IC50 and viability, T/C results from PubChem BioAssay AID1963428 (Molecular Pharmacology Branch, DTP, NCI, 2024).

“And” between values parts separate entries of the source, which are not always exact repeats. Equal values may be shown once. Some results are limits rather than exact numbers.

This experiment deals with 171881-019-R-J1-PDC complex spheroid growth, % test/control. The experiment is described as follows: Anticancer human tumor 171881-019-R-J1-PDC patient-derived invasive breast carcinoma cell line growth inhibition [Asc]. As to conditions: for viability, T/C: stronger effect = lower value. A digest of the protocol: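 Complex solid-tumor spheroids incorporating human endothelial and mesenchymal stem cells received single agents or combinations over half-log dilution ranges anchored to clinical Cmax.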

Where [1] appears, read: curve of first compound, second compound 0.1 µM.
[2] abbreviates: curve of first compound, second compound 0.316 µM.
Setting [3] is: curve of first compound, second compound 1 µM.
[4] abbreviates: curve of first compound, second compound 3.16 µM.
Where [5] appears, read: curve of first compound, second compound 10 µM.
Where [6] appears, read: second compound 0.1 µM, first compound 0.0316 µM.
[7] abbreviates: second compound 0.1 µM, first compound 0.1 µM.
Where [8] appears, read: second compound 0.1 µM, first compound 0.316 µM.
Setting [9] is: second compound 0.1 µM, first compound 1 µM.
[10] abbreviates: second compound 0.316 µM, first compound 0.0316 µM.
The mark [11] stands for this setting: second compound 0.316 µM, first compound 0.1 µM.
Setting [12] is: second compound 0.316 µM, first compound 0.316 µM.
The mark [13] stands for this setting: second compound 0.316 µM, first compound 1 µM.
The mark [14] stands for this setting: second compound 1 µM, first compound 0.0316 µM.
Setting [15] is: second compound 1 µM, first compound 0.1 µM.
[16] abbreviates: second compound 1 µM, first compound 0.316 µM.
[17] abbreviates: second compound 1 µM, first compound 1 µM.
[18] abbreviates: second compound 3.16 µM, first compound 0.0316 µM.
Where [19] appears, read: second compound 3.16 µM, first compound 0.1 µM.
The mark [20] stands for this setting: second compound 10 µM, first compound 0.0316 µM.
[21] abbreviates: second compound 10 µM, first compound 0.1 µM.
The mark [22] stands for this setting: second compound 0.1 µM, first compound 0.00316 µM.
Setting [23] is: second compound 0.1 µM, first compound 0.01 µM.
Setting [24] is: second compound 0.316 µM, first compound 0.00316 µM.
Setting [25] is: second compound 0.316 µM, first compound 0.01 µM.
Setting [26] is: second compound 1 µM, first compound 0.00316 µM.
[27] abbreviates: second compound 1 µM, first compound 0.01 µM.
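Throughout, for viability, T/C: spheroids exposed to compounds for 7 days.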

In the case of `C#Cc1c(F)ccc2cc(O)cc(-c3ncc4c(N5CC6CCC(C5)N6)nc(OCC56CCCN5CC(F)C6)nc4c3F)c12` (stereo unspecified) + Cc1c(S(C)(=O)=O)c(-c2cc(F)cc(N3CCN(c4ccc(NS(=O)(=O)c5ccc(NC(CCN6CCC(C(=O)OCCCP(=O)(O)O)CC6)CSc6ccccc6)c(S(=O)(=O)C(F)(F)F)c5)cc4)CC3)c2)c(-c2ccc(Cl)cc2)n1C(C)C, the IC50 – broadly, the concentration that gives 50% inhibition – under setting [1] was greater than 10000 nM; the IC50 under setting [2] was greater than 10000 nM; the half-maximal inhibitory concentration (IC50) under setting [3] was greater than 10000 nM; the IC50 under setting [4] was 6860 nM; the IC50 under setting [5] amounted to 4000 nM. Further, the viability, T/C (as a rule, the result in the treated group divided by that in the control group, in per cent) is 103% under setting [6]; 116% under setting [7]; 152% under setting [8]; 167% under setting [9]; 154% (second compound 0.1 µM, first compound 3.16 µM); 111% (second compound 0.1 µM, first compound 10 µM). Further, the viability, T/C is 138% under setting [10]; 169% under setting [11]; 219% under setting [12]; 165% under setting [13]; 112% (second compound 0.316 µM, first compound 3.16 µM); 86% (second compound 0.316 µM, first compound 10 µM). The viability, T/C reads like this: under setting [14], 162%; under setting [15], 177%; under setting [16], 165%; under setting [17], 131%; (second compound 1 µM, first compound 3.16 µM) 84.3%; (second compound 1 µM, first compound 10 µM) 61.1%. Also, the viability, T/C runs as follows: under setting [18], 179%; under setting [19], 179%; (second compound 3.16 µM, first compound 0.316 µM) 155%; (second compound 3.16 µM, first compound 1 µM) 97.6%; (second compound 3.16 µM, first compound 3.16 µM) 63.2%; (second compound 3.16 µM, first compound 10 µM) 43%. The viability, T/C is, setting by setting: under setting [20], 179%; under setting [21], 186%; (second compound 10 µM, first compound 0.316 µM) 135%; (second compound 10 µM, first compound 1 µM) 91.5%; (second compound 10 µM, first compound 3.16 µM) 58%; (second compound 10 µM, first compound 10 µM) 33.9%.
Consider `C=CC(=O)N1CCN(c2nc(=O)n(-c3c(C)ccnc3C(C)C)c3nc(-c4c(O)cccc4F)c(F)cc23)C(C)C1` (stereo unspecified), for which the viability, T/C (compound 0.0316 µM) was 94.2% and 93.7% and 99.4%; the viability, T/C (compound 0.1 µM) was 95.4% and 109% and 106%; the viability, T/C (compound 0.316 µM) is 90.9% and 107% and 99.9%; the viability, T/C (compound 1 µM) was 89.2% and 92.1% and 88.4%; the viability, T/C (compound 3.16 µM) is 80.5% and 93.2% and 83.7%; the viability, T/C (compound 10 µM) is 71.1% and 78.1% and 83.2%. Besides, the IC50 (curve of compound) was greater than 10000 nM.
For the molecule `O=C(c1ccc(F)c(F)c1Nc1ccc(I)cc1F)N1CC(O)([C@@H]2CCCCN2)C1` + CNC(C)C(=O)NC1CN(S(=O)(=O)c2cccc(S(=O)(=O)N3CCC4CCC(C(=O)NC(c5ccccc5)c5ccccc5)N4C(=O)C(NC(=O)C(C)NC)C3)c2)CCC2CCC(C(=O)NC(c3ccccc3)c3ccccc3)N2C1=O, the IC50 reads like this: (curve of first compound, second compound 0.01 µM) greater than 1000 nM; (curve of first compound, second compound 0.0316 µM) 747 nM; under setting [1], 635 nM; under setting [2], 519 nM; under setting [3], 408 nM. Moreover, the viability, T/C is 98.1% (second compound 0.01 µM, first compound 0.00316 µM); 103% (second compound 0.01 µM, first compound 0.01 µM); 125% (second compound 0.01 µM, first compound 0.0316 µM); 202% (second compound 0.01 µM, first compound 0.1 µM); 96.9% (second compound 0.01 µM, first compound 0.316 µM); 44.9% (second compound 0.01 µM, first compound 1 µM). Further, the viability, T/C runs as follows: (second compound 0.0316 µM, first compound 0.00316 µM) 93.8%; (second compound 0.0316 µM, first compound 0.01 µM) 98.2%; (second compound 0.0316 µM, first compound 0.0316 µM) 133%; (second compound 0.0316 µM, first compound 0.1 µM) 203%; (second compound 0.0316 µM, first compound 0.316 µM) 86.4%; (second compound 0.0316 µM, first compound 1 µM) 37.6%. Besides, the viability, T/C by setting is: under setting [22], 84.7%; under setting [23], 91.3%; under setting [6], 148%; under setting [7], 191%; under setting [8], 80%; under setting [9], 30.5%. For the same molecule, the viability, T/C under setting [24] was 115%; the viability, T/C under setting [25] was 111%; the viability, T/C under setting [10] was 145%; the viability, T/C under setting [11] is 179%; the viability, T/C under setting [12] was 68.2%; the viability, T/C under setting [13] was 25.7%. Further, the viability, T/C is 92.5% under setting [26]; 110% under setting [27]; 121% under setting [14]; 158% under setting [15]; 58.1% under setting [16]; 21.4% under setting [17].
Consider `C#Cc1c(F)ccc2cc(O)cc(-c3ncc4c(N5CC6CCC(C5)N6)nc(OCC56CCCN5CC(F)C6)nc4c3F)c12` (stereo unspecified), for which the viability, T/C by setting is: (compound 0.0316 µM) 105% and 82.7% and 103%; (compound 0.1 µM) 107% and 98% and 102%; (compound 0.316 µM) 129% and 115% and 117%; (compound 1 µM) 229% and 139% and 208%; (compound 3.16 µM) 271% and 153% and 240%; (compound 10 µM) 281% and 162% and 190%. Besides, where the note is “curve of compound”, the IC50 is greater than 10000 nM.
Turning to `Cn1ncnc1[C@H]1c2n[nH]c(=O)c3cc(F)cc(c23)N[C@@H]1c1ccc(F)cc1` + Cc1c(S(C)(=O)=O)c(-c2cc(F)cc(N3CCN(c4ccc(NS(=O)(=O)c5ccc(NC(CCN6CCC(C(=O)OCCCP(=O)(O)O)CC6)CSc6ccccc6)c(S(=O)(=O)C(F)(F)F)c5)cc4)CC3)c2)c(-c2ccc(Cl)cc2)n1C(C)C, the IC50 under setting [1] was greater than 100 nM; the IC50 under setting [2] is greater than 100 nM; the IC50 under setting [3] is greater than 100 nM; the IC50 under setting [4] was greater than 100 nM; the concentration for half-maximal inhibition (IC50) under setting [5] is greater than 100 nM. For the same molecule, the viability, T/C is, setting by setting: (second compound 0.1 µM, first compound 0.000316 µM) 86.8%; (second compound 0.1 µM, first compound 0.001 µM) 108%; under setting [22], 103%; under setting [23], 115%; under setting [6], 108%; under setting [7], 100%. For the same molecule, the viability, T/C reads like this: (second compound 0.316 µM, first compound 0.000316 µM) 111%; (second compound 0.316 µM, first compound 0.001 µM) 130%; under setting [24], 107%; under setting [25], 120%; under setting [10], 129%; under setting [11], 129%. In addition, the viability, T/C is, setting by setting: (second compound 1 µM, first compound 0.000316 µM) 136%; (second compound 1 µM, first compound 0.001 µM) 145%; under setting [26], 123%; under setting [27], 159%; under setting [14], 143%; under setting [15], 192%. Besides, the viability, T/C by setting is: (second compound 3.16 µM, first compound 0.000316 µM) 168%; (second compound 3.16 µM, first compound 0.001 µM) 155%; (second compound 3.16 µM, first compound 0.00316 µM) 186%; (second compound 3.16 µM, first compound 0.01 µM) 178%; under setting [18], 192%; under setting [19], 173%. Moreover, the viability, T/C runs as follows: (second compound 10 µM, first compound 0.000316 µM) 210%; (second compound 10 µM, first compound 0.001 µM) 203%; (second compound 10 µM, first compound 0.00316 µM) 214%; (second compound 10 µM, first compound 0.01 µM) 208%; under setting [20], 192%; under setting [21], 181%.
Take `NC1CCC(NC2CC2c2ccccc2)CC1` (stereo unspecified): the viability, T/C is 97.1% and 106% and 92% (compound 0.000316 µM); 87.7% and 98.6% and 88.7% (compound 0.001 µM); 94.6% and 94.2% and 80.9% (compound 0.00316 µM); 92.8% and 95.6% and 87.6% (compound 0.01 µM); 76.2% and 94.8% and 77.5% (compound 0.0316 µM); 75.7% and 109% and 79.7% (compound 0.1 µM). In addition, under “curve of compound”, the IC50 was greater than 100 nM.
